Results: patent US7781473B2, “Heterocycle derivatives useful as selective androgen receptor modulators (SARMS)” (J & J Pharmaceutical Research & Development, LLC., priority 2004, dated 2010)

Test system: castrated male Sprague Dawley rats
Test: Ventral Prostate and Levator ani Weight in vivo Assay (agonist, stimulation of tissue weight)
Parameters: species or system rat; key: A compound was designated as agonist active if it produced greater than or equal to 20% stimulation of levator ani at 30 mg/kg; they are listed herein as “inactive” as they did not meet the specified criteria defined above; A designation of “toxic” indicates that the compound exhibited toxicity in the rats tested
Settings: mature castrated rats, test compound oral gavage up to 30 mg/kg once daily for 14 days, vehicle = 0%, testosterone propionate = 100%; for % levator ani Stimulation: levator ani wet weight; for % Prostate Stimulation: ventral prostate wet weight
Protocol: Ventral Prostate and Levator ani Weight in vivo Assay
Mature (150 to 200 g) castrated male Sprague Dawley rats (Charles River) were treated once daily for 14 days with test compound (usually administered by oral gavage at up to the desired dosage, up to 30 mg/kg in a volume of 1 mL, in 30% cyclodextrin or 0.5% methylcellulose vehicle), or with testosterone propionate (administered subcutaneously by injection at the nape of the neck at 5 mg/kg, in a volume of 0.1 mL in sesame oil), or with vehicle (1 mL of 30% cyclodextrin or 0.5% methylcellulose, given orally). On the fifteenth day, the rats were euthanized by asphyxiation in carbon dioxide. Ventral prostates and levator ani muscles were removed and their wet weights determined.
Test compound activity was determined as the percent stimulation of tissue weight, with the vehicle-treated control group set to zero percent and the testosterone alone-treated control group set to 100%. A compound was designated as agonist active if it produced greater than or equal to 20% stimulation of levator ani at 30 mg/kg.
Representative compounds of the present invention were tested according to the procedure described, with results as listed in Table 10 below.

`CC1(C(=O)Nc2ccc(C#N)c(C(F)(F)F)c2)CC(C2CCCC2)=NN1` (stereo not drawn) [compound 78] was tested, and the “% levator ani Stimulation” value was “inactive” and the “% Prostate Stimulation” value was “inactive”.

`CC1(C(=O)N(C(=O)C(F)(F)F)c2ccc(C#N)c(C(F)(F)F)c2)CC(C(F)(F)F)=NN1` (stereo not drawn) [Compound 115, 3-Methyl-5-trifluoromethyl-3,4-dihydro-2H-pyrazole-3-carboxylic acid (4-cyano-3-trifluoromethyl-phenyl)-(2,2,2-trifluoro-acetyl)-amide] was tested, and the “% levator ani Stimulation” value was “inactive” and the “% Prostate Stimulation” value was “inactive”.

`CC1(C(=O)NCc2ccc(S(C)(=O)=O)cc2)CC(C(F)(F)F)=NN1` (stereo not drawn) [Compound 27, 3-Methyl-5-trifluoromethyl-3,4-dihydro-2H-pyrazole-3-carboxylic acid 4-methanesulfonyl-benzylamide] was tested, and the “% levator ani Stimulation” value was “inactive” and the “% Prostate Stimulation” value was “inactive”.

With `CC1CC(C(=O)Nc2ccc(C#N)c(C(F)(F)F)c2)(C(F)(F)F)N=N1` (stereo not drawn) [Compound 114, 5-Methyl-3-trifluoromethyl-4,5-dihydro-3H-pyrazole-3-carboxylic acid (4-cyano-3-trifluoromethyl-phenyl)-amide] the “% levator ani Stimulation” value was “inactive” and the “% Prostate Stimulation” value was “inactive”.

For `CC1(C(=O)Nc2ccc(C#N)c(C(F)(F)F)c2)CC(C(F)(F)C(F)(F)F)=NN1` (stereo not drawn) [Compound 98, 3-Methyl-5-pentafluoroethyl-3,4-dihydro-2H-pyrazole-3-carboxylic acid (4-cyano-3-trifluoromethyl-phenyl)-amide], the “% levator ani Stimulation” value was “active” and the “% Prostate Stimulation” value was “active”.

For `CSCCC1=NNC(C)(C(=O)Nc2ccc(C#N)c(C(F)(F)F)c2)C1` (stereo not drawn) [compound 79], the “% levator ani Stimulation” value was “inactive” and the “% Prostate Stimulation” value was “inactive”.
